# Results taken from patent US20090311716A1, “METHODS TO TREAT OR PREVENT HORMONE-RESISTANT PROSTATE CANCER USING siRNA [sequence] FOR PROTOCADHERIN-PC, OR OTHER INHIBITORS OF PROTOCADHERIN-PC EXPRESSION OR ACTIVITY” (THE TRUSTEES OF COLUMBIA UNIVERSITY IN THE CITY OF NEW YORK, priority 2005, published 2009).
# “Also recorded” adds a separate entry of the source. Peptide text beside a SMILES is read from it. * marks the point of attachment. Cbz = O=C(OCc1ccccc1)*
# Key:
# Format in all cases: cell-based, human
# MDM2 = assay: Western blot of phosphorylated MDM2 in Wnt-activated LNCaP cells; details: β-catenin transfected or 7 days androgen-free LNCaP
# Text: (§1) FIGS. 44A-44B. Suppression of MDM2 expression or direct Akt activity relieves Wnt-mediated suppression of hAR protein expression. FIG. 44A. […] (middle). Actin control (bottom). FIG. 44B. […] Actin control (bottom).
# (§2) FIG. 45. Proteasome inhibitors block the suppression of MDM2 phosphorylation and suppress degradation of PP2A B subunit protein in Wnt-activated LNCaP cells. […] There was no change in the PP2A catalytic C subunit levels in Wnt-activated or proteasome-inhibitor treated cells (bottom).
# Cell lines, plasmids and siRNAs. LNCaP, CWR22rv-1, PC-3 and DU145 cells were obtained from ATCC and were passaged in normal (for LNCaP, RPMI 1640 with 10% fetal calf serum and supplements) or androgen-free maintained as previously described (Yang et al., 2005). A defective adenovirus that expresses Wnt-1 protein (Ad-Wnt-1) and control, Lac Z expressing adenovirus (Ad-lac Z) were previously described (Young et al., 1998). These viruses were applied at 20 particles/cell in low serum (2%) medium for 1 h. Expression plasmids containing mutated (stabilized) human β-catenin (Tetsu and McCormick, 1999), dominant negative TCF-4 (Chen et al., 2001) or PCDH-PC cDNA were transfected into cells as previously described (Example 1; Yang et al., 2005). Small interfering (si) RNAs targeting β-catenin or lamin were purchased from Dharmacon Inc. siRNA targeting human MDM2 was purchased from Qiagen Inc (Valencia, Calif.). siRNAs were transfected into cells. Proteasome inhibitors MG132 and lactacystin were purchased from Sigma Chemical Co. (St Louis, Mo.) and were used at 5 (MG 132) or 10 (lactacystin) […] for 12 h prior to cell harvesting. […]
# (§3) Preparation of cell extracts and western blots. Cells were harvested and protein extracts prepared, quantified and used to prepare Western blots as previously described (Example 1; Yang et al., 2005). […] Recombinant Wnt-1 protein (HA-tagged) was detected with anti-HA antibody (Clontech Inc., Mountain View, Calif.). Antibody binding to the Western blot was detected as previously described (Yang et al., 2005). […]
# hAR protein = assay: Western blot of hAR protein in Wnt-activated LNCaP cells; details: β-catenin or PCDH-PC transfected or 7 days androgen-free LNCaP
# Text: FIGS. 43A-43C. […] FIG. 43A. […] FIG. 43B.
# as §1
# Cell lines, plasmids and siRNAs. LNCaP, CWR22rv-1, PC-3 and DU145 cells were obtained from ATCC and were passaged in normal (for LNCaP, RPMI 1640 with 10% fetal calf serum and supplements) or androgen-free maintained as previously described (Yang et al., 2005). A defective adenovirus that expresses Wnt-1 protein (Ad-Wnt-1) and control, Lac Z expressing adenovirus (Ad-lac Z) were previously described (Young et al., 1998). These viruses were applied at 20 particles/cell in low serum (2%) medium for 1 h. Expression plasmids containing mutated (stabilized) human β-catenin (Tetsu and McCormick, 1999), dominant negative TCF-4 (Chen et al., 2001) or PCDH-PC cDNA were transfected into cells as previously described (Example 1; Yang et al., 2005). Small interfering (si) RNAs targeting β-catenin or lamin were purchased from Dharmacon Inc. siRNA targeting human MDM2 was purchased from Qiagen Inc (Valencia, Calif.). siRNAs were transfected into cells. Proteasome inhibitors MG132 and lactacystin were purchased from Sigma Chemical Co. (St Louis, Mo.) and were used at 5 (MG 132) or 10 (lactacystin) […] for 12 h prior to cell harvesting. PI3-kinase inhibitor LY294002 (Sigma Chemical Co.) and Akt Inhibitor IV (compound 5233705, EMD Biosciences Inc., San Diego, Calif.) (Kau et al., 2003) were used at […] concentrations, respectively, for 12 h prior to harvesting cells.
# as §3
# PP2A B subunit = assay: Western blot of PP2A B subunit in Wnt-activated LNCaP cells
# Text: as §2
# Preparation of cell extracts and western blots. Cells were harvested and protein extracts prepared, quantified and used to prepare Western blots as previously described (Example 1; Yang et al., 2005). Western blots were probed with mouse monoclonal antibodies against human Akt protein, phospho-MDM2 (ser 166), hAR (Santa Cruz Biotechnology Inc., Santa Cruz, Calif.), actin (Sigma Chemical Co., St Louis, Mo.) or with rabbit polyclonal antibodies against phospho-Akt (ser 473) or human MDM2 (Cell Signaling Technology, Beverly, Mass.). Recombinant Wnt-1 protein (HA-tagged) was detected with anti-HA antibody (Clontech Inc., Mountain View, Calif.). Antibody binding to the Western blot was detected as previously described (Yang et al., 2005). Densitometry of films was carried out using a Kodak Image Station 420.
# PCDH-PC mRNA = assay: RT-PCR of PCDH-PC mRNA in LNCaP cells; details: 1 mM db-cAMP, 50 ng/ml IL-6 or 5 nM NS-398, 5 days
# Text: (§4) FIGS. 3A-3D. […] FIG. 3A. […] FIG. 3B. […] FIG. 3C. […] FIG. 3D.
# FIG. 5A. […] FIG. 5B. […] FIG. 5C.
# NSE and chromogranin-A = assay: Western blot of NE biomarkers in LNCaP cells treated with NE transdifferentiation inducers; details: 1 mM db-cAMP, 50 ng/ml IL-6 or 5 nM NS-398, 5 days
# Text: as §4
# PCDH-PC = assay: Western blot of myc-tagged PCDH-PC in LNCaP cells co-transfected with pPCDH-PC-myc and siRNA; details: siRNA 100 nM co-transfected with pPCDH-PC-myc, 48 hrs
# Text: FIGS. 4A-4B. siRNAs against PCDH-PC suppress PCDH-PC expression and NE transdifferentiation of LNCaP cells. FIG. 4A. LNCaP cells were transfected with the pPCDH-PC-myc expression vector and were co-transfected with siRNA against human lamin or siRNAs 181, 190 or 208 designed to suppress PCDH-PC expression. A Western blot made against protein extracts from these cells were probed with anti-myc (Top Panel) to identify expression of the 110 kd PCDH myc-tagged protein, anti-β-actin (Middle Panel) or anti-human E-cadherin (Bottom Panel). FIG. 4B. A repeated experiment that includes control LNCaP cells (no transfection) or pCMV-PCDH-myc transfected LNCaP cells co-transfected with siRNAs against lamin or against PCDH-PC (181, 190 or 208). The Western blot was probed for NSE expression (Top Panel) or for β-actin expression (Bottom Panel).
# Expression Vectors, Transfection Protocols and Luciferase/β-Glactosidase Assays. PCDH-PC cDNA was inserted into the mammalian expression vectors pcDNA3 (Invitrogen Life Technologies, Inc., Carlsbad, Calif.) or into pCMV-myc (BD Biosciences, Clontech, Inc., Palo Alto, Calif.) so that the PCDH-PC product generated from this vector (pPCDH-PC-myc) has a C-terminal myc tag. An expression vector containing cDNA encoding a mutated (stabilized) form of human β-catenin (Tetsu and McCormick, 1999) was used. A dominant-negative Tcf expression vector used was previously described (Chen et al., 2001). The Tcf-sensitive reporter vector, pTOP and a CMV-promoted β-galactosidase expression vector were obtained from Upstate Biotechnology, Inc. Transfections used for protein or RNA extractions were done in 35 cm^2 dishes with cells plated at 50% density 12-16 hrs prior. […] Luciferase activity in cell extracts was measured using the Luciferase Assay System of Promega, Inc. (Madison, Wis.). β-galactosidase activity was also measured in the same cell extracts using the β-galactosidase Enzyme Assay System of Promega, Inc. All experiments involving luciferase reporter vectors were done in triplicate for each point. […]
compound,measurement,setting,value
CC(C)C[C@@H](C=O)NC(=O)[C@H](CC(C)C)NC(=O)[C@H](CC(C)C)NC(=O)OCc1ccccc1 [MG132] (Cbz-Leu-Leu-Leu-aldehyde),Wnt-mediated upregulation of MDM2 phosphorylation,MDM2,blocked
same,Wnt-mediated suppression of hAR protein expression,hAR protein,restored to levels commensurate with elevated hAR mRNA levels
same,loss of PP2A regulatory subunit B,PP2A B subunit,blocked
CS(=O)(=O)Nc1ccc([N+](=O)[O-])cc1OC1CCCCC1 [NS-398],expression of PCDH-PC mRNA,PCDH-PC mRNA,highly upregulated
same,expression of NSE and chromogranin-A proteins,NSE and chromogranin-A,highly upregulated
CC[n+]1c(/C=C/N(C)c2ccccc2)n(-c2ccccc2)c2ccc(-c3nc4ccccc4s3)cc21.[I-] [compound 5233705],Wnt-mediated upregulation of MDM2 phosphorylation,MDM2,able to suppress; also recorded: relieves
same,Wnt-mediated suppression of hAR protein expression,hAR protein,significant elevation; also recorded: relieves
CC(=O)N[C@@H](CSC(=O)[C@]1([C@@H](O)C(C)C)NC(=O)[C@H](C)[C@@H]1O)C(=O)O [lactacystin],Wnt-mediated upregulation of MDM2 phosphorylation,MDM2,blocked
same,Wnt-mediated suppression of hAR protein expression,hAR protein,restored to levels commensurate with elevated hAR mRNA levels
same,loss of PP2A regulatory subunit B,PP2A B subunit,blocked
interleukin-6 [IL-6],expression of PCDH-PC mRNA,PCDH-PC mRNA,highly upregulated
same,expression of NSE and chromogranin-A proteins,NSE and chromogranin-A,highly upregulated
"siRNA #190: 21 bp siRNA targeting PCDH-PC mRNA position 3098-3117, 19 bp core with UU overhangs (SEQ ID NO:6) (AAACATGCAGAATTCTGAATG; listed as DNA, further chemistry not given here)",expression of myc-tagged PCDH-PC polypeptide,PCDH-PC,suppressive effects
"siRNA #208: 21 bp siRNA targeting PCDH-PC mRNA position 3345-3364, 19 bp core with UU overhangs (SEQ ID NO:7) (AAGAAACTAAGGCAGATGATG; listed as DNA, further chemistry not given here)",expression of myc-tagged PCDH-PC polypeptide,PCDH-PC,suppressive effects
